Literature values, collected in patent US7208487B2, “Compounds, compositions and methods” (Cytokinetics, Incorporated, priority 2002, dated 2007).

test system: A549 cells

GI50	Compound
1000 nM	O=c1[nH]cc(F)c(=O)[nH]1 [5-fluorouracil]
63 nM	COc1cccc2c1C(=O)c1c(O)c3c(c(O)c1C2=O)C[C@@](O)(C(=O)CO)C[C@@H]3O[C@H]1C[C@H](N)[C@H](O)[C@H](C)O1 [doxorubicin]
500000 nM	NC(=O)NO [hydroxyurea]
4 nM	CC(=O)O[C@H]1C(=O)[C@@]2(C)[C@H]([C@H](OC(=O)c3ccccc3)[C@]3(O)C[C@H](OC(=O)[C@H](O)[C@@H](NC(=O)c4ccccc4)c4ccccc4)C(C)=C1C3(C)C)[C@]1(OC(C)=O)CO[C@@H]1C[C@@H]2O [paclitaxel]
